Data reported in US8129356B2, “Bmx mediated signal transduction in irradiated vascular endothelium” (Vanderbilt University, priority 2007, dated 2012).
“Also recorded” adds a separate entry of the source.

Key:
[1] = test system: LLC tumor vasculature; assay: Tumor vascular window model; assay type: in vivo, C57BL/6 mice
Method: Tumor vascular window model. The tumor vascular window model technique is described in Edwards et al., 2002. Briefly, three mice for each group had tumors grown within a vascular window such that tumor vasculature could be visualized within window frames containing a coordinate system for serial photography. Animals were treated with LFM-A13 by i.p. injection 60 minutes prior to 2 Gy irradiation using an 80 kVp superficial X-ray machine (Pantak X-ray Generator; East Haven, Conn., United States of America). Serial color photographs were taken to document blood vessel appearance on days 0-7. Photographs were scanned and processed using ADOBE® PHOTOSHOP® software (Adobe Systems Inc., San Jose, Calif., United States of America) to mark the center of vessels, verified by an observer blinded to treatment groups. Vascular length density (VLD) was quantified for each microscopic field using IMAGE-PRO® Plus v. 5.1 software (Media Cybernetics, Inc. Silver Spring, Md., United States of America). The mean and standard error of VLD in each treatment group were calculated and plotted. All animals used were cared for according to Vanderbilt University's Institutional Animal Care and Use Committees guidelines.

[2] = test system: LLC hind limb tumors; assay: Tumor growth delay; assay type: in vivo, C57BL/6 mice; settings: 5 consecutive days
Method: Tumor growth delay. LLC's were subcutaneously injected into the hind limb of C57/BL6 mice to form xenografts. When tumors grew to 200 mm^3, (approximately 7 days) the mice were treated with five consecutive daily treatments of i.p. LFM-A13 followed 45 minutes later by 3 Gy irradiation using an 80 kVp superficial x-ray generator. Serial measurements of tumor dimensions were taken by caliper and tumor volume was calculated using the modified ellipsoid formula (length×width×depth)/2. The mean and standard error were plotted using Microsoft Excel software.

[3] = test system: HUVEC; assay: Endothelial closure assay (migration across a gap); assay type: cell-based, human
Method: Endothelial closure assay. HUVEC of passage 3-6 were grown on glass slides and were subjected to gap formation as described previously (Cuneo et al., 2007). Cells were treated with LFM-A13 or DMSO control prior to 0 or 3 Gy and incubated for the indicated times. Photographs of cell defect and surrounding cells were taken and relative cell density within the defect was calculated as follows: (number of cells/original cell defect area)/(number of cells/surrounding area).

[4] = test system: LLC hind limb tumor blood vessels; assay: Tumor immunohistochemistry (anti-CD34) in hind limb xenograft; assay type: in vivo, C57BL/6 mice; settings: 50 mg/kg i.p. daily, 45 minutes before 3 Gy, five treatments
Method: Tumor immunohistochemistry. LLC's were subcutaneously injected into the hind limb of C57BL/6 mice to form xenografts. When tumors grew to 200 mm^3, (approximately 7 days) the mice were treated with five consecutive daily treatments of i.p. LFM-A13 followed 45 minutes later by 3 Gy irradiation using an 80 kVp superficial x-ray generator. Twelve hours following the last radiation treatment, mice were sacrificed and tumors were harvested, fixed in paraffin, and sectioned by the Vanderbilt University Immunohistochemistry Core Facility as described previously (see Cuneo et al., 2007). Immunostaining was with goat anti-CD34 (Santa Cruz Biotechnology) and microvascular photos were analyzed using IMAGE-PRO® software with pixel number quantified.

[5] = murine studies, previously published; cited from earlier work
[6] = biological target: T1, Bmx (Homo sapiens, UniProt P51813); settings: HUVEC, dose of 25 μM; cited from earlier work
T1 construct: host or cells: HUVEC
T1 sequence (P51813 1-675): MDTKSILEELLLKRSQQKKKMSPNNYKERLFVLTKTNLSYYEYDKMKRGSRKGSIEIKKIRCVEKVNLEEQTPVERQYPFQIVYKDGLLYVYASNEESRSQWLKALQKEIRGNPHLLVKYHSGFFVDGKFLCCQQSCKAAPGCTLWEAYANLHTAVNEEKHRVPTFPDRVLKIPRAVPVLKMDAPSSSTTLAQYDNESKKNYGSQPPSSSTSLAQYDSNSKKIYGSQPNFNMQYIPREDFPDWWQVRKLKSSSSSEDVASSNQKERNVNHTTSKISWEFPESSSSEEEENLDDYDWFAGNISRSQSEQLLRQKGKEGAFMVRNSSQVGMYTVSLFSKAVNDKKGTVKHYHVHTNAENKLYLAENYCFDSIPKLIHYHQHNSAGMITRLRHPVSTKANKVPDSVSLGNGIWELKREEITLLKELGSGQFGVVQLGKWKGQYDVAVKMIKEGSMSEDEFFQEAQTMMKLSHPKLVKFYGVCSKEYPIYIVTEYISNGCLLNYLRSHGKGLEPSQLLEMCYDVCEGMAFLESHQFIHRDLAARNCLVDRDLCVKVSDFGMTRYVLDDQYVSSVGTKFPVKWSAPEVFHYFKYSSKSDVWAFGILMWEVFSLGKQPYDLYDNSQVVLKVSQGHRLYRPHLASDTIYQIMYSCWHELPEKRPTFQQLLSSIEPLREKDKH

[7] = biological target: T1, Bmx; assay type: cell-based; settings: 30 μM pre-incubation, 3 Gy
Method: Immunoprecipitation and in vitro kinase assay. HUVECs of passage 3-6 were grown to 70-80% confluency and then serum starved for 5 hours. The cells were then treated with sham or 3 Gy irradiation. After treatment, the cells were incubated at 37° C. with 5% CO2 for the indicated times. For inhibition studies, inhibitor was added at a 1:1000 dilution 60 minutes prior to irradiation. Following incubation, the tissue culture dishes were placed on ice and washed twice with ice cold 1× Phosphate-buffered Saline (PBS) followed by lysis using 400 μM-PER containing protease and phosphatase inhibitors (Sigma-Aldrich Co.) for 5 minutes. The cells were scraped and transferred to Eppendorf tubes, vortexed for 20 seconds, and incubated on ice for 30 minutes. After clearing the lysate by centrifugation at 15,000 g for 15 minutes at 4° C., the supernatant was quantified for protein concentration using the bicinchoninic acid (BCA) method prior to immunoprecipitation. Immunoprecipitation was performed using the CATCH AND RELEASE® v 2.0 system (Upstate Group, LLC, Charlottesville, Va., United States of America) according to manufacturer's protocol with some modification.
Briefly, spin columns containing binding resin were prepared by washing twice with 1× wash buffer (2000 g/30 seconds). […] This was added to the capped spin column which was rotated end-over-end overnight at 4° C. […]

[8] = test system: HUVEC; assay: Clonogenic survival assay in HUVEC; assay type: cell-based, human; settings: 30 μM
Method: Clonogenic survival. LLC's or passage 3-6 HUVECs were grown to 70-80% confluency. Cells were washed with 1×PBS, trypsin suspended, and were counted and adjusted to specific densities for each condition. The cells were plated on tissue culture plates and allowed to attach for 4 hours. […] Media was changed after irradiation. 10-14 days after irradiation, the plates were fixed with 70% ethanol and stained with 1% methylene blue. Colonies were then counted using a dissection microscopy with positive colonies containing at least 50 cells. Surviving fraction (SF) was calculated by the equation (number of colonies formed/number of cells plated)/(number of colonies for sham irradiated group/number of cells plated). Dose enhancing ratios were calculated by dividing the dose (Gy) for radiation alone by the dose for radiation plus treatment (normalized for plating efficiency of treatment) for which a SF of 0.2 is achieved.

[9] = test system: Lewis Lung Carcinoma (LLC) cell line; assay: Clonogenic survival assay in LLC; assay type: cell-based; settings: prior to 0, 2, 4, or 6 Gy
Method: Clonogenic survival. LLC's or passage 3-6 HUVECs were grown to 70-80% confluency. Cells were washed with 1×PBS, trypsin suspended, and were counted and adjusted to specific densities for each condition. The cells were plated on tissue culture plates and allowed to attach for 4 hours. LFM-A13 or DMSO was added at a 1:1000 dilution followed 60 min later by 0, 2, 4 or 6 Gy. Media was changed after irradiation. 10-14 days after irradiation, the plates were fixed with 70% ethanol and stained with 1% methylene blue. Colonies were then counted using a dissection microscopy with positive colonies containing at least 50 cells. Surviving fraction (SF) was calculated by the equation (number of colonies formed/number of cells plated)/(number of colonies for sham irradiated group/number of cells plated). Dose enhancing ratios were calculated by dividing the dose (Gy) for radiation alone by the dose for radiation plus treatment (normalized for plating efficiency of treatment) for which a SF of 0.2 is achieved.

[10] = test system: HUVEC; assay: Endothelial cell tubule formation assay on MATRIGEL; assay type: cell-based, human; settings: 30 μM plus 3 Gy, vs either treatment alone
Method: Endothelial cell tubule formation assay. HUVEC of passage 3-6 were grown to 70-80% confluency. Cells were then washed with 1×PBS and suspended by trypsinization. Cells were counted and adjusted to 2.5-5×10^4 cells/ml in media. 75 μl MATRIGEL™ (BD Biosciences) were plated into each well of a 96 well plate and allowed to polymerize at 37° C. Cell suspensions (200 μl; […]) were added to each well. After thirty minutes, DMSO control or LFM-A13 was added. Thirty minutes later, dishes were treated with sham or 3 Gy and were then incubated until tubules had formed in control plates (4-6 hours). Digital photographs were taken of individual wells and tubules were counted by an observer blinded to the treatment conditions. The mean and standard error were calculated (n=3).

[11] = test system: HUVEC; assay: Apoptosis assay, Annexin V/propidium iodide flow cytometry; assay type: cell-based, human; settings: 24 hours
Method: Apoptosis assays. HUVEC were grown to 70-80% confluency prior to treatment with LFM-A13 or DMSO control. Cells were then irradiated with 0 or 3 Gy and harvested 24 hours after irradiation. Annexin V-FITC Apoptosis Detection kit (BD PharMingen, San Diego, Calif., United States of America) was used to stain cells (propidium iodide (50 ng) and annexin V-FITC (5 ng) were added to 10^5 cells) for flow cytometry according to manufacturer's protocol. For each treatment, the percent of cells undergoing apoptosis (±SE) was calculated. Camptothecin (5 μmol/L) treatment for 6 hours served as positive control

[12] = test system: HUVEC; assay: Apoptosis assay, DAPI staining of nuclei; assay type: cell-based, human; settings: 30 μM plus 3 or 6 Gy, 24 hours
Method: HUVEC were also assayed for apoptosis using a 4′,6-Diamidino-2-phenylindole (DAPI) staining of the nuclei to identify cells undergoing morphological changes. […] Cells were returned to the incubator for an additional 24 hr prior to DAPI staining. Multiple high powered fields (at least 7) were examined by an observer who was blinded to the experimental conditions for each of the cultures. […] The mean and standard error were calculated for each treatment group.

[13] = test system: HUVEC; assay: In vitro studies disclosed herein, comparison of Tec family inhibitors; assay type: cell-based, human

Row | Compound | tumor vascular window blood vessels, drug alone ([1]; 50 mg/kg i.p. alone) | tumor blood vessels (mean vascular length density), combination with 2 Gy ([1]; single 50 mg/kg i.p. prior to 2 Gy) | tumor growth delay, combination with 3 Gy ([2]; 50 mg/kg i.p. 45 minutes prior to 3 Gy) | tumor growth delay, drug alone ([2]; 50 mg/kg i.p., sham irradiation) | endothelial cell closure (relative cell density in gap), drug alone ([3]; 30 μM alone, 12 hours and 24 hours, vs vehicle control) | endothelial cell closure, combination with 3 Gy ([3]; 30 μM for 45 minutes prior to 3 Gy, 12 and 24 hours) | blood vessel formation (CD34 staining), combination with 3 Gy [4] | tolerability [5] | VEGF induced signaling through Bmx inhibition [6] | radiation-induced Bmx activation (autophosphorylation) [7] | radiosensitization (surviving fraction, survival curve shift) ([8]; 45 minutes prior to 0, 2, 4, or 6 Gy, colonies over 10 days) | dose enhancing ratio (DER) ([8]; dose ratio at SF of 0.2) | clonogenic survival compared to DMSO control [9] | number of tubules formed, combination with 3 Gy [10] | apoptosis, combination with 3 Gy ([11]; 30 μM plus 3 Gy) | early and late apoptosis, drug alone ([11]; 30 μM, sham irradiation) | percent of apoptotic cells, combination with irradiation [12] | effectiveness relative to LFM-A13 [13]
1 | C/C(O)=C(\C#N)C(=O)Nc1cc(Br)ccc1Br [LFM-A13, (2Z)-2-cyano-N-(2,5-dibromophenyl)-3-hydroxy-2-butenamide] | minimally inhibited | dramatic reduction in tumor blood vessels | statistically significant enhancement of growth delay; also recorded: more than additive | small growth delay | minimal effect on attenuating endothelial cell closure | greater than additive effect | most effective at attenuating blood vessel formation | well-tolerated | block VEGF induced signaling | attenuated the activation of Bmx | radiosensitized HUVEC | 1.47 | no difference in clonogenic survival | significant reduction (p<0.005) in tubules formed | statistically significant (p<0.001 vs. LFM-A13 or 3 Gy alone) increase in apoptosis | not capable of shifting cells into either early (Q4-1) or late (Q2-1) apoptosis | enhancement of apoptosis | –
2 | CC1=C(O)C(=O)[C@@H]2O[C@@H]2C1=O [terreic acid] | – | – | – | – | – | – | – | – | – | – | – | – | – | – | – | – | – | at least as effective as LFM-A13
